Laboratory results published in patent publication US20070173462A1, “Treatment of diseases associated with the use of antibiotics” (Optimer Pharmaceuticals, Inc., priority 2004, published 2007).
Values after ≈ are worked out from the molar mass of the structure shown.

What was measured:
Format in all cases: cell-based
C. difficile = assay: MIC via agar dilution, 110 genetically distinct clinical isolates of C. difficile
Veillonella sp. = assay: microbe, parasite or virus in culture; conditions: clinical gastrointestinal isolates, n=10
Moraxella sp. = assay: MIC, ATCC laboratory strains (NCCLS guidelines); conditions: n=2, in µg/mL
Method: (§1) The activity of Compound I was tested against laboratory strains of different species of bacteria using NCCLS antimicrobial susceptibility testing guidelines. […] Including MRSA and Enterococcus sp. Including VRE (Table. 2).

Neisseria sp. = assay: MIC, ATCC laboratory strains (NCCLS guidelines); conditions: n=3, in µg/mL
Method: as §1

Streptococcus sp. = assay: MIC, ATCC laboratory strains (NCCLS guidelines); conditions: n=5, in µg/mL
Method: as §1

[1] = test system: Enterococcus sp. (incl. VRE); assay: MIC, ATCC laboratory strains (NCCLS guidelines)
Method: as §1

Bacteroides sp. = assay: MIC, ATCC laboratory strains (NCCLS guidelines); conditions: n=5
Method: as §1

Citrobacter sp. = assay: MIC, ATCC laboratory strains (NCCLS guidelines); conditions: n=2
Method: as §1

Helicobacter sp. = assay: MIC, ATCC laboratory strains (NCCLS guidelines); conditions: n=1
Method: as §1

Clostridium sp. = assay: MIC, ATCC laboratory strains (NCCLS guidelines)
Method: as §1

Enterobacteriaceae. = assay: MIC, ATCC laboratory strains (NCCLS guidelines); conditions: n=10
Method: as §1

[2] = test system: Staphylococcus sp. (incl. MRSA); assay: MIC, ATCC laboratory strains (NCCLS guidelines)
Method: as §1

Bacillus sp. = assay: MIC, ATCC laboratory strains (NCCLS guidelines); conditions: n=2
Method: as §1

[3] = test system: Anaerobic Gram positive cocci; assay: MIC, ATCC laboratory strains (NCCLS guidelines); conditions: n=4
Method: as §1

Fusobacterium sp. = assay: MIC, ATCC laboratory strains (NCCLS guidelines); conditions: n=1
Method: as §1

Micrococcus sp. = assay: MIC, ATCC laboratory strains (NCCLS guidelines)
Method: as §1

## CCc1c(Cl)c(O)c(Cl)c(O)c1C(=O)O[C@H]1[C@H](O)[C@H](OC)[C@H](OC/C2=C\C=C\C[C@H](O)/C(C)=C/[C@H](CC)C(O[C@@H]3OC(C)(C)[C@@H](OC(=O)C(C)C)[C@H](O)[C@@H]3O)/C(C)=C/C(C)=C/C[C@@H](C(C)O)OC2=O)O[C@@H]1C (some centres unmarked) [Compound I]
C. difficile; isolate ORG ID 70 6376
  MIC: 0.125 µg/mL (≈ 0.118 µM)
C. difficile; isolate ORG ID 71 6379
  MIC: 0.125 µg/mL (≈ 0.118 µM)
C. difficile; isolate ORG ID 72 6380
  MIC: 0.125 µg/mL (≈ 0.118 µM)
C. difficile; isolate ORG ID 75 6388
  MIC: 0.125 µg/mL (≈ 0.118 µM)
C. difficile; isolate ORG ID 76 6389
  MIC: 0.125 µg/mL (≈ 0.118 µM)
C. difficile; isolate ORG ID 80 6327
  MIC: 0.125 µg/mL (≈ 0.118 µM)
C. difficile; isolate ORG ID 81 6328
  MIC: 0.125 µg/mL (≈ 0.118 µM)
C. difficile; isolate ORG ID 84 6331
  MIC: 0.125 µg/mL (≈ 0.118 µM)
C. difficile; isolate ORG ID 87 6334
  MIC: 0.125 µg/mL (≈ 0.118 µM)
C. difficile; isolate ORG ID 88 6335
  MIC: 0.125 µg/mL (≈ 0.118 µM)
C. difficile; isolate ORG ID 90 6338
  MIC: 0.125 µg/mL (≈ 0.118 µM)
C. difficile; isolate ORG ID 91 6339
  MIC: 0.125 µg/mL (≈ 0.118 µM)
C. difficile; isolate ORG ID 93 6341
  MIC: 0.125 µg/mL (≈ 0.118 µM)
C. difficile; isolate ORG ID 95 6347
  MIC: 0.125 µg/mL (≈ 0.118 µM)
C. difficile; isolate ORG ID 98 6350
  MIC: 0.125 µg/mL (≈ 0.118 µM)
C. difficile; isolate ORG ID 100 6353
  MIC: 0.125 µg/mL (≈ 0.118 µM)
C. difficile; isolate ORG ID A1 1535
  MIC: 0.125 µg/mL (≈ 0.118 µM)
C. difficile; isolate ORG ID AF1 1808
  MIC: 0.125 µg/mL (≈ 0.118 µM)
C. difficile; isolate ORG ID AG1 3044
  MIC: 0.125 µg/mL (≈ 0.118 µM)
C. difficile; isolate ORG ID AH1 3430
  MIC: 0.125 µg/mL (≈ 0.118 µM)
C. difficile; isolate ORG ID AN1 464
  MIC: 0.125 µg/mL (≈ 0.118 µM)
C. difficile; isolate ORG ID AO1 287
  MIC: 0.125 µg/mL (≈ 0.118 µM)
C. difficile; isolate ORG ID AS1 4099
  MIC: 0.125 µg/mL (≈ 0.118 µM)
C. difficile; isolate ORG ID AT1 1216
  MIC: 0.125 µg/mL (≈ 0.118 µM)
C. difficile; isolate ORG ID AW1 4501
  MIC: 0.125 µg/mL (≈ 0.118 µM)
C. difficile; isolate ORG ID BE1 4307
  MIC: 0.125 µg/mL (≈ 0.118 µM)
C. difficile; isolate ORG ID BI1 1675
  MIC: 0.125 µg/mL (≈ 0.118 µM)
C. difficile; isolate ORG ID BK1 4291
  MIC: 0.125 µg/mL (≈ 0.118 µM)
C. difficile; isolate ORG ID BL1 716
  MIC: 0.125 µg/mL (≈ 0.118 µM)
C. difficile; isolate ORG ID BN1 1322
  MIC: 0.125 µg/mL (≈ 0.118 µM)
C. difficile; isolate ORG ID BV1 1183
  MIC: 0.125 µg/mL (≈ 0.118 µM)
C. difficile; isolate ORG ID BW1 3130
  MIC: 0.125 µg/mL (≈ 0.118 µM)
C. difficile; isolate ORG ID BX1 4271
  MIC: 0.125 µg/mL (≈ 0.118 µM)
C. difficile; isolate ORG ID CF1 5922
  MIC: 0.125 µg/mL (≈ 0.118 µM)
C. difficile; isolate ORG ID CG1 1566
  MIC: 0.125 µg/mL (≈ 0.118 µM)
C. difficile; isolate ORG ID CJ1 893
  MIC: 0.125 µg/mL (≈ 0.118 µM)
C. difficile; isolate ORG ID CP1 5491
  MIC: 0.125 µg/mL (≈ 0.118 µM)
C. difficile; isolate ORG ID G1 1077
  MIC: 0.125 µg/mL (≈ 0.118 µM)
C. difficile; isolate ORG ID I1 1389
  MIC: 0.125 µg/mL (≈ 0.118 µM)
C. difficile; isolate ORG ID K1 4305
  MIC: 0.125 µg/mL (≈ 0.118 µM)
C. difficile; isolate ORG ID K14 5780
  MIC: 0.125 µg/mL (≈ 0.118 µM)
C. difficile; isolate ORG ID L1 1423
  MIC: 0.125 µg/mL (≈ 0.118 µM)
C. difficile; isolate ORG ID N1 471
  MIC: 0.125 µg/mL (≈ 0.118 µM)
C. difficile; isolate ORG ID R1 397
  MIC: 0.125 µg/mL (≈ 0.118 µM)
C. difficile; isolate ORG ID V1 1521
  MIC: 0.125 µg/mL (≈ 0.118 µM)
C. difficile; isolate ORG ID W1 3931
  MIC: 0.125 µg/mL (≈ 0.118 µM)
C. difficile; isolate ORG ID X1 1890
  MIC: 0.125 µg/mL (≈ 0.118 µM)
Veillonella sp.; Veillonella
  MIC50: 32 µg/mL (≈ 30.2 µM)
  MIC90: 128 µg/mL (≈ 121 µM)
Veillonella sp.
  Range (MIC): 16 to 128 µg/mL
Moraxella sp.
  Range (MIC): 1-2
Neisseria sp.
  Range (MIC): 8-64
Streptococcus sp.
  Range (MIC): 16-32
[1]; ATCC laboratory strains, n=4
  Range (MIC): 4 µg/mL
[1]; laboratory strains, including VRE
  activity (in words): moderate activity
Bacteroides sp.
  Range (MIC): > 32 µg/mL
Citrobacter sp.
  Range (MIC): > 64 µg/mL
Helicobacter sp.
  Range (MIC): > 32 µg/mL
Clostridium sp.; ATCC laboratory strains, n=4
  Range (MIC): ≦0.015-0.0625
Clostridium sp.; laboratory strains
  activity (in words): excellent activity
Enterobacteriaceae.
  Range (MIC): > 32 µg/mL
[2]; ATCC laboratory strains, n=6, in µg/mL
  Range (MIC): 1-16
[2]; laboratory strains, including MRSA
  activity (in words): moderate activity
Bacillus sp.
  Range (MIC): 1 µg/mL
[3]
  Range (MIC): ≦0.06-1
Fusobacterium sp.
  Range (MIC): > 32 µg/mL
Micrococcus sp.; ATCC laboratory strains, n=4
  Range (MIC): ≦0.125
Micrococcus sp.; laboratory strains
  activity (in words): excellent activity
